Assay results as given in patent US11040980B2, “Substituted pyrazolo[3,4-d]pyrimidines as kinase inhibitors” (PRINCIPIA BIOPHARMA INC., priority 2012, dated 2021).

Target: protein target (Homo sapiens (Human), UniProt Q06187)
Assay: Reversibility of binding (compound in solution before and after perturbation of target, HPLC-MS/MS)
Settings: target in native (folded) state, target in excess of compound
Experimental: The following approach was developed to differentiate compounds that form irreversible covalent bond with their targets, such as non-cyano containing acrylamide compounds, from compound that form reversible covalent bond i.e., compounds and/or pharmaceutically acceptable salts of the present disclosure. […] The reactions were then treated with perturbations including both denaturation with 5 M guanidine hydrochloride and digestion with trypsin, disrupting proper folding of the target. […] The concentration of compound in solution was assessed both preceding and following perturbation using high performance liquid chromatography (HPLC) coupled to tandem mass spectrometry.

protein target, sequence (Q06187 whole entry): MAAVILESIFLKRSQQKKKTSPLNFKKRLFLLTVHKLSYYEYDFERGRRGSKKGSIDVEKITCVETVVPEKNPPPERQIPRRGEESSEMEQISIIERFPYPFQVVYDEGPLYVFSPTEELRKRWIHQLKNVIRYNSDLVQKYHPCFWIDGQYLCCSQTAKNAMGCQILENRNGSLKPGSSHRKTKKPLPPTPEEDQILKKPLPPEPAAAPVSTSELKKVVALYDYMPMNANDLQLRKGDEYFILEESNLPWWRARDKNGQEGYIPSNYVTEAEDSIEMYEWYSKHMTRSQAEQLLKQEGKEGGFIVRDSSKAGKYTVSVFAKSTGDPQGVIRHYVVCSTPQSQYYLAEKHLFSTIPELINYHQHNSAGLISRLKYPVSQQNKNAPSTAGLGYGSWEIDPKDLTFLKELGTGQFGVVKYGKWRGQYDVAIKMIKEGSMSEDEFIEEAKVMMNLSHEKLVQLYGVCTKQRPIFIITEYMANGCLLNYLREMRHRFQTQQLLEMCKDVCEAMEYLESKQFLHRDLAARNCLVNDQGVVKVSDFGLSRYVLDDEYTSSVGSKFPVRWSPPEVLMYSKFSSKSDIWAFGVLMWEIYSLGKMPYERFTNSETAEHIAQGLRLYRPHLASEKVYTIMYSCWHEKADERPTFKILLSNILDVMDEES

Compound in solution in the native state?: no
Structure (SMILES): CN(C1COC1)C(C)(C)C=C(C#N)C(=O)N1CCC[C@H]1Cn1nc(-c2ccc(Oc3ccccc3)cc2F)c2c(N)ncnc21 [Example 10, 2-[(2S)-2-[[4-amino-3-(2-fluoro-4-phenoxy-phenyl)pyrazolo[3,4-d]pyrimidin-1-yl]methyl]pyrrolidine-1-carbonyl]-4-methyl-4-[methyl(oxetan-3-yl)amino]pent-2-enenitrile]
